One block for each compound: values may come before it. Active and inactive are the calls of the source.
Key:
Format in all cases: functional
[1] = molecular target: T1, Apoptotic protease-activating factor 1 (Homo sapiens, UniProt O14727); assay: SAR analysis of small molecule inhibitors of Apaf-1 in a Fluorescent assay.; settings: read-out: IC50_Mean
T1 sequence (O14727 whole entry): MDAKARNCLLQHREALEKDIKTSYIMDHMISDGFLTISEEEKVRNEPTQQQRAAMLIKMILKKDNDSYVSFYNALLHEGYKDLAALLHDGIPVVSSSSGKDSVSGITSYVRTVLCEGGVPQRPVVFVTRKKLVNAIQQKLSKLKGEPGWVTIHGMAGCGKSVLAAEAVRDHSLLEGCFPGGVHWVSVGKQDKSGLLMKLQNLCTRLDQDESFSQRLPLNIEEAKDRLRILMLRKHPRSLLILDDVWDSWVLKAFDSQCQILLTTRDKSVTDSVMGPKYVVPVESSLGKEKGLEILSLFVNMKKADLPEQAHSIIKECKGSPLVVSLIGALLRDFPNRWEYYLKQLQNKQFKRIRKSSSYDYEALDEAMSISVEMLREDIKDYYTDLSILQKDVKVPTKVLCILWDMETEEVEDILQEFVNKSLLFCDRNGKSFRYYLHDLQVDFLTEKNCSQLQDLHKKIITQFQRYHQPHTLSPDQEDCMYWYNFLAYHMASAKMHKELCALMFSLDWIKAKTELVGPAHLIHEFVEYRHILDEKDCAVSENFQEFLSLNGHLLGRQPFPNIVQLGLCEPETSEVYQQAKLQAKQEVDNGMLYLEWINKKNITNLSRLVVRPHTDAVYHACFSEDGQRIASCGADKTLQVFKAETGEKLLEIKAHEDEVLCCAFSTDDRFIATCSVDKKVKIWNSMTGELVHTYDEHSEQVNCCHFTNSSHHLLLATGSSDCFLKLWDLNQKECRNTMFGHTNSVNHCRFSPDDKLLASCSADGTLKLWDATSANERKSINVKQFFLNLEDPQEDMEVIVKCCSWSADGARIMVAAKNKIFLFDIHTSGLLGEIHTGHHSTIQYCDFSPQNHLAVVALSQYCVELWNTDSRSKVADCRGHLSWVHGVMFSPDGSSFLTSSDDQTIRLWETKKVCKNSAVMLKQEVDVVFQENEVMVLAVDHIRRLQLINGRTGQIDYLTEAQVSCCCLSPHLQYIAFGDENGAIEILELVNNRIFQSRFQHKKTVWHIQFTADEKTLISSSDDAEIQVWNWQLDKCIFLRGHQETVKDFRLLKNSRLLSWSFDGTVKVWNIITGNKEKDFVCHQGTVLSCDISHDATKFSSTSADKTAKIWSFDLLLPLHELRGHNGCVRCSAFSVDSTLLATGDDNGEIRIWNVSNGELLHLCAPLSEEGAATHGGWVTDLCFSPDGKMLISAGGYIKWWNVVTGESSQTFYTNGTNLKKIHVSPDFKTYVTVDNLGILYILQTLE

[2] = molecular target: Calcium/calmodulin-dependent protein kinase type II subunit alpha (Homo sapiens, UniProt Q9UQM7); assay: Navigating the Kinome. Panel member name: CAMK2A
[3] = molecular target: Tyrosine-protein kinase receptor TYRO3 (Homo sapiens, UniProt Q06418);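 further: TYRO3 value obtained as one member of a kinome-wide profiling panel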
[4] = molecular target: Dual specificity tyrosine-phosphorylation-regulated kinase 1A (Homo sapiens, UniProt Q13627);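 further: measured against DYRK1A as one member of a broad kinome profiling panel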
[5] = molecular target: Rho-associated protein kinase 1 (Homo sapiens, UniProt Q13464);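 further: measured within a broad kinome-wide panel profiling many kinases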
[6] = molecular target: Vascular endothelial growth factor receptor 1 (Homo sapiens, UniProt P17948);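 further: measured within a kinome-wide profiling panel, FLT1 as the panel member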
[7] = molecular target: Protein kinase C theta type (Homo sapiens, UniProt Q04759); assay: Navigating the Kinome. Panel member name: PRKCQ
[8] = molecular target: Hepatocyte growth factor receptor (Homo sapiens, UniProt P08581);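 further: kinase panel profiling across the kinome, with MET as the panel member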
[9] = molecular target: cAMP-dependent protein kinase catalytic subunit alpha (Homo sapiens, UniProt P17612)
[10] = molecular target: Mitogen-activated protein kinase kinase kinase kinase 2 (Homo sapiens, UniProt Q12851);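 further: measured as one member of a kinome-wide kinase panel, with MAP4K2 as the panel entry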
[11] = molecular target: Dual specificity protein kinase CLK2 (Homo sapiens, UniProt P49760)
[12] = molecular target: Glycogen synthase kinase-3 alpha (Homo sapiens, UniProt P49840);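 further: GSK3A result taken from a broad kinome-wide kinase panel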
Activin receptor type-1 = Activin receptor type-1 (Homo sapiens, UniProt Q04771); assay: Navigating the Kinome. Panel member name: ACVR1
[13] = molecular target: Dual specificity protein kinase CLK4 (Homo sapiens, UniProt Q9HAZ1)
[14] = molecular target: Platelet-derived growth factor receptor beta (Homo sapiens, UniProt P09619);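 further: value comes from a kinome panel, with PDGFRB tested as one panel member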
[15] = molecular target: Fibroblast growth factor receptor 1 (Homo sapiens, UniProt P11362)
[16] = molecular target: Glycogen synthase kinase-3 beta (Homo sapiens, UniProt P49841);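 further: value comes from a broad kinome profiling panel, with GSK3B as the panel member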
[17] = molecular target: cAMP-dependent protein kinase catalytic subunit PRKX (Homo sapiens, UniProt P51817)
[18] = molecular target: Cyclin-dependent kinase 7 (Homo sapiens, UniProt P50613);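 further: value comes from a kinome-wide kinase profiling panel in which CDK7 is one member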
[19] = molecular target: Tyrosine-protein kinase ABL1 (Homo sapiens, UniProt P00519)
Focal adhesion kinase 1 = Focal adhesion kinase 1 (Homo sapiens, UniProt Q05397);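 further: measured as one member of a kinome panel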
[20] = molecular target: Dual specificity mitogen-activated protein kinase kinase 1 (Homo sapiens, UniProt Q02750); assay: Navigating the Kinome. Panel member name: MAP2K1
Activated CDC42 kinase 1 = Activated CDC42 kinase 1 (Homo sapiens, UniProt Q07912); assay: Navigating the Kinome. Panel member name: ACK1
[21] = molecular target: Cyclin-dependent kinase 5 (Homo sapiens, UniProt Q00535);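 further: CDK5 measured as one member of a kinase profiling panel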
[22] = molecular target: Dual specificity mitogen-activated protein kinase kinase 2 (Homo sapiens, UniProt P36507); assay: Navigating the Kinome. Panel member name: MAP2K2
[23] = molecular target: Leucine-rich repeat serine/threonine-protein kinase 2 (Homo sapiens, UniProt Q5S007);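 further: value from a broad kinome-wide panel profiling study in which LRRK2 was one of the kinases tested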
[24] = molecular target: Dual specificity tyrosine-phosphorylation-regulated kinase 1B (Homo sapiens, UniProt Q9Y463); assay: Navigating the Kinome. Panel member name: DYRK1B
[25] = molecular target: Leukocyte tyrosine kinase receptor (Homo sapiens, UniProt P29376); assay: Navigating the Kinome. Panel member name: LTK
[26] = molecular target: Macrophage-stimulating protein receptor (Homo sapiens, UniProt Q04912); assay: Navigating the Kinome. Panel member name: MST1R
[27] = molecular target: Serine/threonine-protein kinase D3 (Homo sapiens, UniProt O94806);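 further: determined within a kinase panel screen, with PRKCN as the panel member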
[28] = molecular target: Vascular endothelial growth factor receptor 2 (Homo sapiens, UniProt P35968)
[29] = molecular target: Macrophage colony-stimulating factor 1 receptor (Homo sapiens, UniProt P07333);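 further: value comes from the Navigating the Kinome screening panel, CSF1R member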
[30] = molecular target: Death-associated protein kinase 3 (Homo sapiens, UniProt O43293);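 further: measured as one member of a kinome-wide profiling panel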
[31] = molecular target: Mitogen-activated protein kinase kinase kinase kinase 4 (Homo sapiens, UniProt O95819)
[32] = molecular target: ALK tyrosine kinase receptor (Homo sapiens, UniProt Q9UM73);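 further: ALK tested as one member of a kinase panel screen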
[33] = molecular target: Casein kinase I isoform alpha (Homo sapiens, UniProt P48729)
[34] = molecular target: Cyclin-dependent kinase 9 (Homo sapiens, UniProt P50750);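 further: value from the CDK9 entry of a kinome-spanning kinase panel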
Aurora kinase A = Aurora kinase A (Homo sapiens, UniProt O14965);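 further: value from the Navigating the Kinome kinase panel profiling, panel entry STK6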
[35] = molecular target: T2, Melanin-concentrating hormone receptor 1 (Homo sapiens, UniProt Q99705); assay: Late-stage fluorescence-based counterscreen for antagonists of the G-protein coupled receptor 7 (GPR7): cell-based dose response assay to identify antagonists of the melanin-concentrating hormone receptor 1 (MCHR1) Set 5.
[36] = molecular target: T3, Neuropeptides B/W receptor type 1 (Homo sapiens, UniProt P48145); assay: human NPBW1 receptor blockade, IC50 – cell-based, fluorescence, dose response, set 5, late-stage follow-up (AID 588566)
T3 sequence (P48145 whole entry): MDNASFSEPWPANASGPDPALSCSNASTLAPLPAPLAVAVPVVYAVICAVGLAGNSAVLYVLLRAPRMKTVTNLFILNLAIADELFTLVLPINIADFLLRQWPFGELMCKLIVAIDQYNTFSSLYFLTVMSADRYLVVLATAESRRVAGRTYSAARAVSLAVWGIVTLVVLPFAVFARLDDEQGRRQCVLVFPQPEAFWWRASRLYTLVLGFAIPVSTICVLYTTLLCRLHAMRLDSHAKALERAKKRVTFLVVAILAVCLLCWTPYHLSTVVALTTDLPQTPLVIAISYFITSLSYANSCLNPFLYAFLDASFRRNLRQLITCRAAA

[37] = molecular target: T2, Melanin-concentrating hormone receptor 1; assay: Late-stage fluorescence-based counterscreen for antagonists of the G-protein coupled receptor 7 (GPR7): cell-based dose response assay to identify antagonists of the melanin-concentrating hormone receptor 1 (MCHR1) Set 6.
[38] = molecular target: T3, Neuropeptides B/W receptor type 1; assay: human NPBW1 receptor blockade, IC50 – cell-based, fluorescence, dose response, set 6, late-stage follow-up (AID 588583)

T2 sequence (Q99705 whole entry): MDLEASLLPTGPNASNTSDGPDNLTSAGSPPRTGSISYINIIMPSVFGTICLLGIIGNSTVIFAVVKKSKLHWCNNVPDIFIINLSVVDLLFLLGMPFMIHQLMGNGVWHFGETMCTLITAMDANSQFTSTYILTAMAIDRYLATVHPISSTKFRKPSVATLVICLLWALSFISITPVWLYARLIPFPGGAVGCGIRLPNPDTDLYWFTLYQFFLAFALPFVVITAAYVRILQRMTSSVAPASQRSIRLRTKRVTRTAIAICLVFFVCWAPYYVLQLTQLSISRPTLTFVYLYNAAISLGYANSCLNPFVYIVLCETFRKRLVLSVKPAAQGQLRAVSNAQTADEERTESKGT
ALK tyrosine kinase receptor, sequence (Q9UM73 whole entry, canonical isoform): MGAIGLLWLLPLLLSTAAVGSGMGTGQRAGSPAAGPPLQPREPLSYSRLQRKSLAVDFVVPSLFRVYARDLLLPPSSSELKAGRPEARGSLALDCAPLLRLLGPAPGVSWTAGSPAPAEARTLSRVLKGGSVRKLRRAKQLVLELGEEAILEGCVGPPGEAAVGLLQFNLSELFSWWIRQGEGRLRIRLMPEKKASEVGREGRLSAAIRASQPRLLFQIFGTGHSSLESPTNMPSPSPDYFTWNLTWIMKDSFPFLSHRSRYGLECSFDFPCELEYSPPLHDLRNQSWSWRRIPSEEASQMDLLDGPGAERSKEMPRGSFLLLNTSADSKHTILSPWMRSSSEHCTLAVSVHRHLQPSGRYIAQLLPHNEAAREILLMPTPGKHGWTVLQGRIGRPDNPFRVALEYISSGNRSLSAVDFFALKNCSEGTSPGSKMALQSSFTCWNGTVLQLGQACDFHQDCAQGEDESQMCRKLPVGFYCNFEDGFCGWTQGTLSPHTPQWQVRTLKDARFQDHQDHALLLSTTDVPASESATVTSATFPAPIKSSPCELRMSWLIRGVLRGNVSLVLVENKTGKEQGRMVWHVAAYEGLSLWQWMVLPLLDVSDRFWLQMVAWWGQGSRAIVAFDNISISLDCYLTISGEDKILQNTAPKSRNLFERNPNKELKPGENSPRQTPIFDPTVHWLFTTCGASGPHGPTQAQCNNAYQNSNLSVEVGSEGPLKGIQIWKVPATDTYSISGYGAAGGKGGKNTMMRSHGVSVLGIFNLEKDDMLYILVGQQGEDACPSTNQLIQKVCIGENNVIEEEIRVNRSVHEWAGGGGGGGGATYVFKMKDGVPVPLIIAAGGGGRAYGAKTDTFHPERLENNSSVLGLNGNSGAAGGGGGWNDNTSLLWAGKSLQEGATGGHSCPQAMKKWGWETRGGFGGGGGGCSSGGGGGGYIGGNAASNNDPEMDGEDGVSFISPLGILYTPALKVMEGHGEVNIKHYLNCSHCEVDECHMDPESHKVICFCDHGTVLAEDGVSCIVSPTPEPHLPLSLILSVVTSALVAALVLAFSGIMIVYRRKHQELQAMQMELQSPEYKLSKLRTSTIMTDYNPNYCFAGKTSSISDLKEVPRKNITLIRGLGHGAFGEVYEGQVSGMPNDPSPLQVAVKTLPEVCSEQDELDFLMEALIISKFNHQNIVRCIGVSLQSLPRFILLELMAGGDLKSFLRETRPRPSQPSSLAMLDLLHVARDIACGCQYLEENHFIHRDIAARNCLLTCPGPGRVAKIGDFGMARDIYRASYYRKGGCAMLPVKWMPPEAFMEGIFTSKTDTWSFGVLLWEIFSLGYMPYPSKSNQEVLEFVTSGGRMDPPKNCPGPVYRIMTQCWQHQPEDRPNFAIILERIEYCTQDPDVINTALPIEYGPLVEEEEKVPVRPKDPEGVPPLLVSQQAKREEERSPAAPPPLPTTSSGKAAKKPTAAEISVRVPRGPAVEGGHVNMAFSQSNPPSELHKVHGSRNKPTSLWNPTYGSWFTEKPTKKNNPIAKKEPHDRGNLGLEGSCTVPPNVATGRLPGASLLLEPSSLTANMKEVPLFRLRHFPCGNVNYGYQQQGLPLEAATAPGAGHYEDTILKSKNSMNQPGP
Mitogen-activated protein kinase kinase kinase kinase 4, sequence (O95819 whole entry): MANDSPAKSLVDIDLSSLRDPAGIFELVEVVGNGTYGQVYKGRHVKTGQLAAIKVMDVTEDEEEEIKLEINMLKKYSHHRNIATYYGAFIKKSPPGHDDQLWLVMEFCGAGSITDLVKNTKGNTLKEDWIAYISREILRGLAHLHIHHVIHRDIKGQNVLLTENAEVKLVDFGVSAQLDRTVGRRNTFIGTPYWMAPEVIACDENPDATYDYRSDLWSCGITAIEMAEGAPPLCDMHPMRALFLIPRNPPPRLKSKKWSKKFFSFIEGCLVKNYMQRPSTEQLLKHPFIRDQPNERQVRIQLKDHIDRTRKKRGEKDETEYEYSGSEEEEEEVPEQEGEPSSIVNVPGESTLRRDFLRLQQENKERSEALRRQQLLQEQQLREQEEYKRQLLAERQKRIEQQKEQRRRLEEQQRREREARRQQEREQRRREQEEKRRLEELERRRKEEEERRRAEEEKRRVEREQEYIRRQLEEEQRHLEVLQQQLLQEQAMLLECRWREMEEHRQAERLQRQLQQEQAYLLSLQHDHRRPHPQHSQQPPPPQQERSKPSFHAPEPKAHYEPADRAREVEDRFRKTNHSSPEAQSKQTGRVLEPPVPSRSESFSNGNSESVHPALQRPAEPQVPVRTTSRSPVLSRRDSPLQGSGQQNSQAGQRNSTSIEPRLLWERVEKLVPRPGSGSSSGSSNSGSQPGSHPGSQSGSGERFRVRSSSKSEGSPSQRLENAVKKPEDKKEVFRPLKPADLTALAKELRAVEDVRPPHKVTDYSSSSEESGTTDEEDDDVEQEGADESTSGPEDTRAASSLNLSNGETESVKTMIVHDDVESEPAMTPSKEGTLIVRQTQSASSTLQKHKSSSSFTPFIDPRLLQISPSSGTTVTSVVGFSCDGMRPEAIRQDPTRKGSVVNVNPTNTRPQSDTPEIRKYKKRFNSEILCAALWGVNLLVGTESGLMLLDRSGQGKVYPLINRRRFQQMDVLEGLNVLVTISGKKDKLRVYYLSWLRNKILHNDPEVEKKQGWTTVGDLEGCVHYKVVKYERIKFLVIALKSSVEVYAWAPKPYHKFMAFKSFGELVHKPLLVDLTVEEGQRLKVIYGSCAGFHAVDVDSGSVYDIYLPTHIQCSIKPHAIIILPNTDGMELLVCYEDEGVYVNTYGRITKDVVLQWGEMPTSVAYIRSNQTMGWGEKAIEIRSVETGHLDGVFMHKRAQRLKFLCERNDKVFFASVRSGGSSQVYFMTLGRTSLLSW
Calcium/calmodulin-dependent protein kinase type II subunit alpha, sequence (Q9UQM7 whole entry): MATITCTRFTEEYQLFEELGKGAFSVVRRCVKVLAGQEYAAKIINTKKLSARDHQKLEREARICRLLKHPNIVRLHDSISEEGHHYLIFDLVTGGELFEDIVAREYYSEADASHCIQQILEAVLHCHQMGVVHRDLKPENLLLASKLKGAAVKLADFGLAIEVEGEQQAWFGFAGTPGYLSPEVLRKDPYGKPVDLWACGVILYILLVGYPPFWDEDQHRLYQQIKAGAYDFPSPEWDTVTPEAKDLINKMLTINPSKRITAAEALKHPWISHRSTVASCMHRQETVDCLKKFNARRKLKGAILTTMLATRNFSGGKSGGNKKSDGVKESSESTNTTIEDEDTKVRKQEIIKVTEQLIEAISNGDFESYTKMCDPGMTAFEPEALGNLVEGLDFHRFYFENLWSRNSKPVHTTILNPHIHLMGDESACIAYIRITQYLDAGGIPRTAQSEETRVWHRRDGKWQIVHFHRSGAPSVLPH
Tyrosine-protein kinase receptor TYRO3, sequence (Q06418 whole entry): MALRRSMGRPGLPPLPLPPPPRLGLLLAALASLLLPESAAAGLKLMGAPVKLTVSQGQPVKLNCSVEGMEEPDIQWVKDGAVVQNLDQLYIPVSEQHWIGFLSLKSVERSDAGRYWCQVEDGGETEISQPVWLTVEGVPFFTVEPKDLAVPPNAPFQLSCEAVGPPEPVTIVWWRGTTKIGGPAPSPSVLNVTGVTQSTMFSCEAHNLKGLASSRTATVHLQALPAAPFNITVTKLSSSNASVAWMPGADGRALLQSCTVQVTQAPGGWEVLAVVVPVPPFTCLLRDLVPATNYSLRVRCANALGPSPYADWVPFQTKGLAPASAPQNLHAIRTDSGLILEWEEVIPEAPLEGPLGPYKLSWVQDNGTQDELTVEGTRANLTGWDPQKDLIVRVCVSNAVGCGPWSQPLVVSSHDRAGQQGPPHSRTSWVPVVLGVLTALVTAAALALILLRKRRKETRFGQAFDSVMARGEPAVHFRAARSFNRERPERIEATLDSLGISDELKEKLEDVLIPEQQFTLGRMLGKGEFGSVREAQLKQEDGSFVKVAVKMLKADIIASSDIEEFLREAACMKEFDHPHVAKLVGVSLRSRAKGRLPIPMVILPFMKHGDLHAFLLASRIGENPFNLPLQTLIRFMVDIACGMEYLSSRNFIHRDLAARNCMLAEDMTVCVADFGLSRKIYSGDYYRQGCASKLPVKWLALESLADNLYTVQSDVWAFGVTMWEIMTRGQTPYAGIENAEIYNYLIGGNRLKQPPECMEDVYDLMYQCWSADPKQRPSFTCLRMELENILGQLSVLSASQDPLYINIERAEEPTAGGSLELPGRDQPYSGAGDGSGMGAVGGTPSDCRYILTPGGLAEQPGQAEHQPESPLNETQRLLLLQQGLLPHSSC
Cyclin-dependent kinase 5, sequence (Q00535 whole entry): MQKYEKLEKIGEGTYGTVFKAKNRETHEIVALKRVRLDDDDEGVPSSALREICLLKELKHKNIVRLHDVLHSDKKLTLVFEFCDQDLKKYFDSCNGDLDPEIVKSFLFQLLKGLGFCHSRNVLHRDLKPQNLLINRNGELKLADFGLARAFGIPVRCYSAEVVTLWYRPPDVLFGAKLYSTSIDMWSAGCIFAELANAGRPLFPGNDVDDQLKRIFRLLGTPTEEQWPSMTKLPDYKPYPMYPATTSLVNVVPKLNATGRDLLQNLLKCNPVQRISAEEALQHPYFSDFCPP

IC50 [1]: > 100 µM (inactive)
SMILES: O=C(Nc1ccc2[nH]c(-c3cccs3)nc2c1)c1cccs1

Ki [2]: 25.1 µM (active)
Ki [3]: 39.8 µM (active)
Ki [4]: 25.1 µM (active)
Ki [5]: 0.501 µM (active)
Ki [6]: 79.4 µM (active)
Ki [7]: 20 µM (active)
Ki [8]: 31.6 µM (active)
Ki [9]: 0.0794 µM (active)
Ki [10]: 31.6 µM (active)
Ki [11]: 2 µM (active)
Ki [12]: 20 µM (active)
Ki (Activin receptor type-1): 1 µM (active)
Ki [13]: 0.0398 µM (active)
Ki [14]: 6.31 µM (active)
Ki [15]: 63.1 µM (active)
Ki [16]: 20 µM (active)
Ki [17]: 0.501 µM (active)
Ki [18]: 20 µM (active)
Ki [19]: 15.8 µM (active)
Ki (Focal adhesion kinase 1): 20 µM (active)
Ki [20]: 0.251 µM (active)
Ki (Activated CDC42 kinase 1): 15.8 µM (active)
Ki [21]: 20 µM (active)
Ki [22]: 1.26 µM (active)
Ki [23]: 1.26 µM (active)
Ki [24]: 6.31 µM (active)
Ki [25]: 31.6 µM (active)
Ki [26]: 63.1 µM (active)
Ki [27]: 79.4 µM (active)
Ki [28]: 12.6 µM (active)
Ki [29]: 7.94 µM (active)
Ki [31]: 20 µM (active)
Ki [32]: 63.1 µM (active)
Ki [33]: 7.94 µM (active)
Ki [34]: > 63.1 µM (inactive)
Ki (Aurora kinase A): > 39.8 µM (inactive)
SMILES: Nc1n[nH]c2cccc(-c3ccc(F)cc3)c12
Ki [30]: 39.8 µM (active)

IC50 [35]: 3.67 µM (active)
IC50 [36]: 1.18 µM (active)
SMILES: N#CC(c1cccnc1)c1cnn(Cc2cccc3ccccc23)c(=O)c1Cl (configuration not stated)

IC50 [37]: 8.2 µM (active)
IC50 [38]: 8.2 µM (active)
SMILES: CCC(C#N)(c1ccccc1)c1c(Br)cnn(Cc2cccc3ccccc23)c1=O (configuration not stated)

— ChEMBL document CHEMBL1201862, “PubChem BioAssay data set” (2004)
